Test results reported in US20240016774A1, “IMPLANTABLE DEPOTS FOR LOCALIZED, SUSTAINED, CONTROLLED RELEASE OF THERAPEUTIC AGENTS TO TREAT CANCER AND RELATED CONDITIONS” (Foundry Therapeutics, Inc., priority 2020, published 2024).

Assay: in vitro drug release (elution) in PBS at 37° C.
Format: physicochemical
Conditions: docetaxel powder, milled vs unmilled
Procedure: Using docetaxel as the example drug, and 10:10:80 PEG10K:PLGA5050:Doce as the baseline formulation for comparison, we show below various novel formulations that can increase in vitro drug elution rates as tested in PBS at 37° C. 10:10:80 PEG10K:PLGA5050:Doce was the formulation that was evaluated in our preclinical studies. Average cumulative drug release % values with linear trend line from the first 14 days were plotted, as shown in FIG. 114. • Baseline=PEG:PLGA:Doce 10:10:80 Rod • Fast=PEG:PLGA:Doce 50:10:40 Rod • Faster=PEG:Doce 60:40 Rod • Raw docetaxel powder, milled or unmilled • Fastest=PEG:Doce 1:1 Particles
The mechanism of how each of these novel formulations can achieve increased in vitro drug release rate compared to the baseline 10:10:80 PEG10K:PLGA5050:Doce formulation is explained below. We have developed multiple formulations with tunable drug release rates that takes advantage of either decreasing hydrophobicity (by increasing PEG content) or introducing predominantly molecularly dispersed drug into the polymer matrix.

CC(=O)O[C@@]12CO[C@@H]1C[C@H](O)[C@@]1(C)C(=O)[C@H](O)C3=C(C)[C@@H](OC(=O)[C@H](O)[C@@H](NC(=O)OC(C)(C)C)c4ccccc4)C[C@@](O)([C@@H](OC(=O)c4ccccc4)[C@H]21)C3(C)C [docetaxel]
dissolution rate after milling: does not significantly increase dissolution rate even after milling
